Test results: PubChem BioAssay AID449762 (Southern Research Specialized Biocontainment Screening …, 2010)
Records with an inconclusive call do not appear.

Each compound was assayed on M. tuberculosis H37Rv growth inhibition, 7H9 media (assay: M. tuberculosis growth inhibition, HTS (AID 449762;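 further: bacterial growth assessed after seven days of incubation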)). Conditions: measured here: IC90 growth inhibition.
For `O=C(c1cc2nc(-c3ccc(F)cc3)cc(C(F)(F)F)n2n1)N1CCCCC1c1cccnc1` (stereo unspecified), the IC90 was 31.4 µM. `Cc1ccc(NC(=O)COC(=O)C(NS(=O)(=O)c2ccc(Cl)cc2)C(C)O)cc1C` (stereo unspecified) gave an IC90 of 8.97 µM. `CCCCn1c(=O)c(C(=O)Nc2ncccc2C)c(O)c2ccccc21` was tested, and the IC90 was 15.8 µM. `Cc1ccc(C(=O)O/N=C\c2ccc(N3CCCCC3)c([N+](=O)[O-])c2)cc1` showed an IC90 of 49 µM. Work on `CCNc1nc(Nc2ccc(C)c(Cl)c2)c2cnn(C)c2n1` yielded an IC90 of over 100 µM. `CCNc1nc(NCC)nc(N/N=C/c2ccc([N+](=O)[O-])o2)n1` gave an IC90 of 1.67 µM. With `Cc1ccc(OCCCCNC2CCCC(C)C2C)c(C)c1` (stereo unspecified) the IC90 was 24.2 µM. For `COc1cc2c(-c3ccc4[nH]ccc4c3)c(-c3ccc(C#N)cc3)oc(=O)c2cc1OC`, the IC90 was over 100 µM. `CCOc1cc2c(cc1OCC)-n1cccc1C(c1ccc(C(C)C)cc1)NC2` (stereo unspecified) showed an IC90 of 29.6 µM. With `CCNCC(=O)N1c2ccccc2CCc2ccc(NC(=O)OC(C)C)cc21` the IC90 was 71.3 µM. Work on `Nc1cc(C(=O)OCC(=O)NNC(=O)c2cccs2)ccc1Cl` yielded an IC90 of over 100 µM. With `Cc1nc(SCC(=O)NCC2CCCO2)c2c3c(sc2n1)CCCC3` (stereo unspecified) the IC90 was 24.6 µM. With `O=[N+]([O-])c1cc([N+](=O)[O-])c2cc3ccccc3nc2c1` the IC90 was 0.81 µM. `CCC1CSC(Nc2ccc(C(=O)/C=C/c3cccc(C)c3)cc2)=N1` (stereo unspecified) was tested, and the IC90 was 27.3 µM. `O=C(CSC(=S)N1CCCC1)c1cc(Br)cc(Br)c1O` was tested, and the IC90 was 36.6 µM. `CCOC(=O)C1CCN(c2nc3cc(OC)ccc3cc2C#N)CC1` showed an IC90 of over 100 µM. For `Cn1nc(C(F)(F)F)c2cc(NC(=O)OCC(C)(C)C)sc21`, the IC90 was 40 µM. Work on `O=C(/C=C/c1ccco1)Nc1cccc(-c2nc3ccccc3[nH]2)c1` yielded an IC90 of over 100 µM. For `CCc1ccc(NC(=O)c2ccc(C3SCC(=O)N3CCc3ccccc3)cc2)cc1` (stereo unspecified), the IC90 was over 100 µM. `O=C1C(Cl)=C(N2CCOCC2)C(=O)N1c1cccc(Cl)c1` gave an IC90 of 7.3 µM. Compound `CCc1cccc2c(C(=O)CCl)c[nH]c12` has an IC90 of 3.18 µM. `COc1ccc(C2CC(=O)C3=C(C2)NC(C)=C(C#N)C3c2ccc(N(C)C)cc2)cc1` (stereo unspecified) was tested, and the IC90 was 33 µM. `CC(C(Sc1ccccc1N)c1ccccc1)[N+](=O)[O-]` (stereo unspecified) showed an IC90 of over 100 µM. `O=C(/C=C/c1ccccc1)N1CCN(CCN2C(=O)c3cccc4cccc(c34)C2=O)CC1` was tested, and the IC90 was 3.87 µM. Work on `CCc1cc(/C(Cc2ccccn2)=N\Nc2ccccc2)c(O)cc1O` yielded an IC90 of 77.4 µM. `c1ccc(CN2CCC(Nc3nc(-c4ccccc4)nc4ccccc34)CC2)cc1` was tested, and the IC90 was 16.3 µM. With `CCCCCn1c(=O)c2ccccc2n2c(CCl)nnc12` the IC90 was 2.21 µM. `Cn1cnnc1SCc1ccc(C(=O)N=Nc2c(O)n(Cc3ccc(Cl)cc3)c3ccccc23)cc1` gave an IC90 of 3.4 µM. With `Cc1c(NC(=O)c2ccc([N+](=O)[O-])o2)cccc1-c1nc2ncccc2o1` the IC90 was over 25 µM. Compound `CN(C)c1ccc(-c2cc(O)c3ncccc3c2)cc1` has an IC90 of 4.17 µM. `Cc1ccc(C(=O)Nc2cccc(C(F)(F)F)c2)cc1Nc1ncnc2nc[nH]c12` was tested, and the IC90 was over 100 µM. `CCN(CC)c1ccc(/C=C2\SC(=O)N(C(C)C)C2=O)o1` showed an IC90 of 4.79 µM. `CN(C)CCOc1nc(-c2ccccc2)nc2c1oc1ccccc12` gave an IC90 of 16.3 µM. `COc1cccc2c1C(CO)N1C(C#N)C3CC(C(=O)O)C(C1C2)N3C` (stereo unspecified) was tested, and the IC90 was 2.98 µM. Compound `Cc1cc(-c2ccc(Cl)cc2)c2cnn(C(C)C)c2n1` has an IC90 of 44.1 µM. `CCc1nc2ccccc2c(C(=O)Nc2cc(C)ccc2C)c1C` was tested, and the IC90 was over 100 µM. `Cc1cccc(OCC(=O)NNC(=O)c2cc3ccccc3oc2=O)c1` gave an IC90 of over 100 µM. In the case of `Cc1ccc(C(=O)c2oc3ccc(Cl)cc3c2NC(=O)CN2CCN(C)CC2)cc1`, the IC90 is reported as 17.8 µM. With `c1ccc(-c2c3ccccc3nc3[nH]c4ccccc4c23)cc1` the IC90 was over 100 µM. Compound `O=C(/C(=C/c1ccc(Cl)cc1)c1nc2ccccc2[nH]1)c1cccs1` has an IC90 of 42.7 µM. With `CCOC(=O)c1c(NC(=O)CCl)sc(CN(C)C)c1-c1ccccc1` the IC90 was 4.68 µM. With `Cc1cc(C)n2[nH]c(=O)c(N=Nc3cccc(C(F)(F)F)c3)c2n1` the IC90 was over 100 µM. With `COc1ccccc1C(=O)NC(=S)/C=C1/N(C)c2ccccc2C1(C)C` the IC90 was 43.9 µM. `CCOc1ccc(N=CC2=C(O)CC(c3ccco3)CC2=O)cc1` (stereo unspecified) was tested, and the IC90 was over 100 µM. Work on `C=CCOc1ccc(C2=NOC(C(=O)Nc3ccc4c(c3)OCCO4)C2)cc1` (stereo unspecified) yielded an IC90 of 23.1 µM. In the case of `COc1ccccc1/C(C)=N/NC(=S)NCc1ccccc1`, the IC90 is reported as 26.6 µM. Work on `CC(C)(C)NC(=O)[C@@H]1C[C@@H]2CCCC[C@@H]2CN1C[C@@H](O)[C@H](Cc1ccccc1)NC(=O)[C@H](CC(N)=O)NC(=O)c1ccc2ccccc2n1` yielded an IC90 of 51.9 µM. Work on `CC(C)CCC[C@@H](C)[C@H]1CC[C@H]2[C@@H]3C(=O)C=C4C[C@@H](O)CC[C@]4(C)[C@H]3CC[C@]12C` yielded an IC90 of 47.8 µM. `c1ccc(/N=C2\N=C(Nc3ccccn3)c3ccccc32)nc1` gave an IC90 of 1.91 µM. `NC(N)=N/N=C/c1ccc(N(c2ccccc2)c2ccccc2)cc1` showed an IC90 of 13.7 µM. `O=C(COc1cccc(Oc2ccccc2)c1)Nc1ncccn1` was tested, and the IC90 was over 100 µM. In the case of `C=CC[n+]1ccn(-c2nc3ccccc3nc2[N-]S(=O)(=O)c2cccs2)c1`, the IC90 is reported as 28.1 µM. `O=C(N/N=C\c1ccc[nH]1)c1cncc(Br)c1` showed an IC90 of 49 µM. `CC(C)(C)c1ccc(Cn2nnc3c(=O)[nH]c(C4CCCN(C(=O)Cc5cccs5)C4)nc32)cc1` (stereo unspecified) showed an IC90 of 47.8 µM. In the case of `COc1ccc(CNc2ncnc3c2[nH]c2cc(OC)c(OC)cc23)cc1`, the IC90 is reported as 14.9 µM. `CN(/N=C/c1cc(Br)cc(Br)c1O)c1cccc(C(F)(F)F)n1` was tested, and the IC90 was 7.43 µM. With `CCCc1cc(=O)n2[nH]c(C)c(-c3ccc(Cl)cc3)c2n1` the IC90 was 18.1 µM. `COc1cc(NC(=O)C/C(C)=N/NC(=O)c2ccccn2)c(OC)cc1Cl` was tested, and the IC90 was 4.13 µM. Work on `CCOC(=O)c1c(C)n(-c2ccc(C)cc2)c2ccc(OCC(O)CNCC3CCCO3)cc12` (stereo unspecified) yielded an IC90 of 31 µM. Work on `CC1CCC/C(=N\NC(=S)Nc2ccccc2)C1` (stereo unspecified) yielded an IC90 of 67.5 µM. Work on `CCOc1ccc(OCCSc2ccc(S(=O)(=O)N3CCN(C)CC3)cn2)cc1` yielded an IC90 of 28.6 µM. For `COc1ccc(C[C@H]2CN3C(=NC[C@H]3Cc3ccccc3)N2CCNC(=O)CCC2CCCCC2)cc1`, the IC90 was 21.3 µM. `O=C(NNC1CC(=O)N(c2ccc(Br)cc2)C1=O)c1ccccn1` (stereo unspecified) gave an IC90 of 13.6 µM. With `C[C@]12CC[C@@H]3c4ccc(O)cc4CC[C@H]3[C@@H]1CC[C@@H]2OC(=O)CCC1CCCC1` the IC90 was 10.9 µM. `Cc1ccc(C)c(-c2nnc(NC(=O)C3=COCCO3)o2)c1` was tested, and the IC90 was 12.2 µM. With `CCOC1OC(=O)C(Cl)=C1Nc1ccccc1C` (stereo unspecified) the IC90 was 6.18 µM. For `CC/C(C)=N/NC(=S)NCc1ccco1`, the IC90 was 53.8 µM. Work on `Cc1ccc(-c2c[n+](CC(=O)N3c4ccccc4Sc4ccccc43)c3n2CCC3)cc1` yielded an IC90 of 20.2 µM. `CCC(=O)Oc1ccc(C(=O)Nc2ccc3c(c2)C(=O)N(C2CCCCC2)C3=O)cc1` gave an IC90 of 44.5 µM. In the case of `C[N+](C)(CCCCCC[N+](C)(C)CCCN1C(=O)c2cccc3cccc(c23)C1=O)CCCN1C(=O)c2cccc3cccc(c23)C1=O`, the IC90 is reported as 3.72 µM. `O=[N+]([O-])c1c(C(Cl)Cl)nn(-c2ccc(Cl)cc2)c1N1CCCCC1` was tested, and the IC90 was 19.4 µM. Compound `CC1=NNC(=O)/C1=C\c1cn(-c2ccccc2)nc1-c1ccc(Cl)cc1` has an IC90 of 37.2 µM. In the case of `CC(=O)N1CCN(c2ccc(Oc3ccc([N+](=O)[O-])c(C(F)(F)F)c3)cc2)CC1`, the IC90 is reported as 19.3 µM. `COC(=O)CCn1c(C)cc(C(=O)COc2ccccc2C(N)=O)c1C` gave an IC90 of 15.8 µM. In the case of `Cc1ccc2nc(N/N=C/c3ccccc3C#N)nc(-c3ccccc3)c2c1`, the IC90 is reported as over 100 µM. Work on `O=c1/c(=C\c2ccc(O)cc2)sc2n1C(c1ccccc1)C(c1ccccc1)=NN=2` (stereo unspecified) yielded an IC90 of 87.2 µM. In the case of `O=C1C(SCCO)=C(SCCO)C(=O)c2ccccc21`, the IC90 is reported as 6.83 µM. `Cc1ccccc1NC1=C/C(=N\S(=O)(=O)c2cccs2)c2ccccc2C1=O` gave an IC90 of 11.8 µM. Work on `C=C1C(=O)O[C@@H]2C[C@@H](C)[C@@H]3C4OC4C(=O)[C@@]3(C)[C@@H](O)[C@H]12` (stereo partly specified) yielded an IC90 of 9.39 µM. `CCn1cnc2sc(C(=O)Oc3ccc(Br)cc3)c(C)c2c1=O` gave an IC90 of 11.3 µM. `Cc1csc(NC(=O)CCCC(=O)O)c1-c1nc2ccccc2s1` gave an IC90 of 79.6 µM. With `O=C1C=C(c2ccc3[nH]ccc3c2)C[C@@H](c2ccc(Cl)cc2)C1` the IC90 was over 100 µM. `Cc1ccccc1N1CCN(C(=O)c2ccc(Oc3ccc(C(F)(F)F)cn3)cc2)CC1` was tested, and the IC90 was 60.5 µM. Compound `CCNc1nc(NC(C)(C)C)nc(N2CCCCC2)n1` has an IC90 of over 100 µM. Compound `O=C(NC1CCN(Cc2ccccc2)CC1)c1cccc(S(=O)(=O)Nc2ccc(SC(F)F)cc2)c1` has an IC90 of 21.9 µM. Compound `COc1ccc(N2C(=O)C(Cl)=C(Nc3ccccc3O)C2=O)cc1` has an IC90 of 25.7 µM.
